From patent US20220218852A1, “NOVEL RADIOLABELLED CXCR4-TARGETING COMPOUNDS FOR DIAGNOSIS AND THERAPY” (PROVINCIAL HEALTH SERVICES AUTHORITY, priority 2019, published 2022)
Like-named read-outs stand apart in the source and are kept apart here. Positions of bridges follow the written chain, without caps; N, C: chain ends. Non-standard residues stand in square brackets, D forms with d. Residues, ends and D or L forms follow the SMILES beside them. Groups on a side chain read outwards from the residue. *: point of attachment. DOTA = O=C(O)CN1CCN(CC(=O)O)CCN(CC(=O)*)CCN(CC(=O)O)CC1; 2Nal = N[C@@H](Cc1ccc2ccccc2c1)C(=O)O; Lys(iPr) = CC(C)NCCCC[C@H](N)C(=O)O

Key:
[1] = Biodistribution in Z138 tumor-bearing mice; type: in vivo; conditions: male, NOD.Cg-Rag1tm1Mom Il2rgtm1Wjl/SzJ (NRG), mouse, iv, total radioactivity
Experimental: (§1) For Daudi, Z138, GRANTA519 and Jeko1 xenografts, male NOD.Cg-Rag1^tm1MomII2rg^tm1Wjl/SzJ (NRG) mice were subcutaneously inoculated on the left flank with 5×10^6 cells (100 μL; 1:1 ratio of PBS/Matrigel) and tumors were grown to a size of 200-500 mm^3. For PC-3 xenografts, male NOD.Cg-Rag1^tm1MomII2rg^tm1Wjl/SzJ (NRG) mice were subcutaneously inoculated on the left flank with 5×10^6 PC-3 cells (100 μL; 1:1 ratio of PBS/Matrigel) and tumors were grown to a size of 200-400 mm^3.
(§2) The mice were euthanized via CO2 inhalation while anesthetized with isoflurane. Tissues were harvested, washed in PBS, blotted dry, weighed, and measured on a Hidex AMG Automatic Gamma Counter.

[2] = system: Z138 mantle cell lymphoma xenografts; assay: Biodistribution in Z138 tumor-bearing mice; type: in vivo
Experimental: as §1, §2

[3] = liver, read-out: Biodistribution Liver
[4] = lung, read-out: Biodistribution Lung
[5] = muscle, read-out: Biodistribution Muscle
[6] = pancreas, read-out: Biodistribution Pancreas
[7] = spleen, read-out: Biodistribution Spleen

CC(C)NCCCC[C@@H]1NC(=O)[C@H](Cc2ccc(O)cc2)NC(=O)[C@H](Cc2ccccc2)NC(=O)CC[C@H](C(=O)N[C@@H](CCCCNC(C)C)C(=O)N[C@@H](CCCCNC(=O)[C@H](CCC(=O)O)NC(=O)[C@H](CCC(=O)O)NC(=O)[C@H](CCC(=O)O)NC(=O)CN2CCN(CC(=O)O)CCN(CC(=O)O)CCN(CC(=O)O)CC2)C(N)=O)NC(=O)CNC(=O)[C@H](Cc2ccc3ccccc3c2)NC(=O)[C@@H](CCCNC(=N)N)NC1=O [[^177Lu]Lu-BL02, metal not drawn] (FY[Lys(iPr)][dR][2Nal]G[dE][Lys(iPr)]K([Glu-Glu-Glu-DOTA])-NH2; lactam N-7)
tissue uptake at 1 h ([1]; liver, 1 h, read-out: Biodistribution Liver): 0.93 %ID/g
tissue uptake at 1 h ([1]; liver, 1 h blocked, read-out: Biodistribution Liver): 0.99 %ID/g
tissue uptake at 4 h [1, 3]: 0.92 %ID/g
tissue uptake at 24 h [1, 3]: 0.703 %ID/g
tissue uptake at 72 h [1, 3]: 0.436 %ID/g
tissue uptake at 1 h ([1]; lung, 1 h, read-out: Biodistribution Lung): 0.83 %ID/g
tissue uptake at 1 h ([1]; lung, 1 h blocked, read-out: Biodistribution Lung): 1.57 %ID/g
tissue uptake at 4 h [1, 4]: 0.26 %ID/g
tissue uptake at 24 h [1, 4]: 0.176 %ID/g
tissue uptake at 72 h [1, 4]: 0.184 %ID/g
tissue uptake at 1 h ([1]; muscle, 1 h, read-out: Biodistribution Muscle): 0.1 %ID/g
tissue uptake at 1 h ([1]; muscle, 1 h blocked, read-out: Biodistribution Muscle): 0.45 %ID/g
tissue uptake at 4 h [1, 5]: 0.03 %ID/g
tissue uptake at 24 h [1, 5]: 0.019 %ID/g
tissue uptake at 72 h [1, 5]: 0.01 %ID/g
tissue uptake at 1 h ([1]; pancreas, 1 h, read-out: Biodistribution Pancreas): 0.14 %ID/g
tissue uptake at 1 h ([1]; pancreas, 1 h blocked, read-out: Biodistribution Pancreas): 0.31 %ID/g
tissue uptake at 4 h [1, 6]: 0.04 %ID/g
tissue uptake at 24 h [1, 6]: 0.034 %ID/g
tissue uptake at 72 h [1, 6]: 0.016 %ID/g
tissue uptake at 1 h ([1]; spleen, 1 h, read-out: Biodistribution Spleen): 0.56 %ID/g
tissue uptake at 1 h ([1]; spleen, 1 h blocked, read-out: Biodistribution Spleen): 0.56 %ID/g
tissue uptake at 4 h [1, 7]: 0.33 %ID/g
tissue uptake at 24 h [1, 7]: 0.277 %ID/g
tissue uptake at 72 h [1, 7]: 0.288 %ID/g
Ratio Tumour:Blood ([2]; 1 h): 38.98
Ratio Tumour:Bone ([2]; 1 h): 74.82
Ratio Tumour:Liver ([2]; 1 h): 18.53
Ratio Tumour:Lung ([2]; 1 h): 21.08
Ratio Tumour:Muscle ([2]; 1 h): 166.59
Ratio Tumour:Spleen ([2]; 1 h): 33.05
Ratio Tumour:Blood ([2]; 1 h blocked): 2.74
Ratio Tumour:Bone ([2]; 1 h blocked): 9.53
Ratio Tumour:Liver ([2]; 1 h blocked): 3.84
Ratio Tumour:Lung ([2]; 1 h blocked): 2.75
Ratio Tumour:Muscle ([2]; 1 h blocked): 13.22
Ratio Tumour:Spleen ([2]; 1 h blocked): 6.87
Ratio Tumour:Blood ([2]; 4 h): 627.62
Ratio Tumour:Bone ([2]; 4 h): 145.11
Ratio Tumour:Liver ([2]; 4 h): 16.93
Ratio Tumour:Lung ([2]; 4 h): 60.62
Ratio Tumour:Muscle ([2]; 4 h): 503.09
Ratio Tumour:Spleen ([2]; 4 h): 49.43
Ratio Tumour:Blood ([2]; 24 h): 873.49
Ratio Tumour:Bone ([2]; 24 h): 109.48
Ratio Tumour:Liver ([2]; 24 h): 12.51
Ratio Tumour:Lung ([2]; 24 h): 52.72
Ratio Tumour:Muscle ([2]; 24 h): 463.22
Ratio Tumour:Spleen ([2]; 24 h): 31.90
Ratio Tumour:Blood ([2]; 72 h): 613.24
Ratio Tumour:Bone ([2]; 72 h): 68.39
Ratio Tumour:Liver ([2]; 72 h): 8.32
Ratio Tumour:Lung ([2]; 72 h): 21.59
Ratio Tumour:Muscle ([2]; 72 h): 358.55
Ratio Tumour:Spleen ([2]; 72 h): 13.86
